From US20070238694A1, “Purine compounds and methods of use thereof” (Inotek Pharmaceuticals Corporation, priority 2006, published 2007)
Like-named read-outs stand apart in the source and are kept apart here. Each block holds one molecule with its values, some of them ahead of it.

What was measured:
[1] = Peak area of Compound X in plasma after intratracheal administration of Compound 54 (LC/MS); type: in vivo, Sprague-Dawley rats
Experimental: (§1) A 10 mg/mL solution of Compound 54 in saline was prepared and 0.2 mL of this solution was administered into the trachea of two Sprague-Dawley rats via intubation. Blood samples were taken at 10 minutes, 30 minutes, 60 minutes and 120 minutes, post-intubation. The plasma concentration of Compound 54 was measured at each of these time points using HPLC and the peak area of the amount of Compound X in the plasma was measured at each of these time points using LC/MS.
The peak area of Compound X correlates with the plasma concentration of this compound.

[2] = Plasma concentration of Compound 54 after intratracheal administration (HPLC); type: in vivo, Sprague-Dawley rats; conditions: Sprague-Dawley, rat, other: intratracheal (into the trachea via intubation), 2 mg per rat, 0.2 mL of 10 mg/mL solution in saline
Experimental: as §1

Structure (SMILES): CNC(=O)[C@H]1O[C@@H](n2cnc3c(NC)nc(C#N)nc32)[C@H](O)[C@@H]1O [Compound X]
Mean Peak Area ([1]; 120 min after intratracheal administration of Compound 54, Rat 2 value not available): 0.4
Peak Area Rat 1 ([1]; Rat 1, 10 min after intratracheal administration of Compound 54): 140
Peak Area Rat 1 ([1]; Rat 1, 30 min after intratracheal administration of Compound 54): 9.6
Peak Area Rat 1 ([1]; Rat 1, 60 min after intratracheal administration of Compound 54): 4.4
Peak Area Rat 1 ([1]; Rat 1, 120 min after intratracheal administration of Compound 54): 0.4
Peak Area Rat 2 ([1]; Rat 2, 10 min after intratracheal administration of Compound 54): 64
Peak Area Rat 2 ([1]; Rat 2, 30 min after intratracheal administration of Compound 54): 12
Peak Area Rat 2 ([1]; Rat 2, 60 min after intratracheal administration of Compound 54): 1.8
Mean Peak Area ([1]; mean of rats, 10 min after intratracheal administration of Compound 54): 102
Mean Peak Area ([1]; mean of rats, 30 min after intratracheal administration of Compound 54): 10.8
Mean Peak Area ([1]; mean of rats, 60 min after intratracheal administration of Compound 54): 3.1

concentration at 10 min ([2]; Rat 1, 10 min post-intubation, read-out: Plasma Concentration Rat 1): 830 ng/mL
concentration at 30 min ([2]; Rat 1, 30 min post-intubation, read-out: Plasma Concentration Rat 1): 232 ng/mL
concentration at 60 min ([2]; Rat 1, 60 min post-intubation, read-out: Plasma Concentration Rat 1): 69.3 ng/mL
concentration at 120 min ([2]; Rat 1, 120 min post-intubation, read-out: Plasma Concentration Rat 1): 9.7 ng/mL
concentration at 10 min ([2]; mean of two rats, 10 min post-intubation, read-out: Mean Plasma Concentration): 728 ng/mL
concentration at 30 min ([2]; mean of two rats, 30 min post-intubation, read-out: Mean Plasma Concentration): 217 ng/mL
concentration at 60 min ([2]; mean of two rats, 60 min post-intubation, read-out: Mean Plasma Concentration): 47.6 ng/mL
concentration at 120 min ([2]; mean of two rats, 120 min post-intubation, read-out: Mean Plasma Concentration): 9.6 ng/mL
concentration at 10 min ([2]; second rat column (head printed Rat 1), 10 min post-intubation, read-out: Plasma Concentration Rat 1): 627 ng/mL
concentration at 30 min ([2]; second rat column (head printed Rat 1), 30 min post-intubation, read-out: Plasma Concentration Rat 1): 202 ng/mL
concentration at 60 min ([2]; second rat column (head printed Rat 1), 60 min post-intubation, read-out: Plasma Concentration Rat 1): 26 ng/mL
concentration at 120 min ([2]; second rat column (head printed Rat 1), 120 min post-intubation, read-out: Plasma Concentration Rat 1): 9.5 ng/mL
Structure (SMILES): CNC(=O)[C@H]1O[C@@H](n2cnc3c(NC)nc(C#N)nc32)[C@@H]2OP(=O)(O)O[C@@H]21 [Compound 54]
